Test results from PubChem BioAssay (NCI).
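Here, GI50 denotes the concentration required for 50% inhibition of growth. TGI is the concentration that stops growth completely.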

Key:
Test in all cases: DTP human tumour cell line panel, 384-well format
[1] = tested on: HCT-15 colon
[2] = tested on: K-562 leukemia
[3] = tested on: SK-MEL-28 melanoma
[4] = tested on: SN12C renal
[5] = tested on: OVCAR-8 ovarian
[6] = tested on: M14 melanoma
[7] = tested on: SK-OV-3 ovarian
[8] = tested on: RXF 393 renal
[9] = tested on: NCI-H23 lung
[10] = tested on: 786-0 renal
[11] = tested on: HT29 colon
[12] = tested on: SNB-75 CNS
[13] = tested on: OVCAR-3 ovarian

Compound: Cc1ccc(S(=O)(=O)Cc2nc(-c3ccc(C(=O)NCc4cccnc4)cc3)oc2C)cc1
- GI50 [1]: < 0.01 µM
- TGI [1]: 0.0163 µM
- GI50 [2]: < 0.01 µM
- TGI [2]: < 0.01 µM
- GI50 [3]: 0.0172 µM
- TGI [3]: 0.0343 µM
- GI50 [4]: < 0.01 µM
- TGI [4]: < 0.01 µM
- GI50 [5]: < 0.01 µM
- TGI [5]: < 0.01 µM
- GI50 [6]: < 0.01 µM
- TGI [6]: 0.0169 µM
- GI50 [7]: < 0.01 µM
- TGI [7]: < 0.01 µM
- GI50 [8]: 0.0169 µM
- TGI [8]: 0.0334 µM
- GI50 [9]: < 0.01 µM
- TGI [9]: 0.0202 µM
- GI50 [10]: < 0.01 µM
- TGI [10]: 0.0161 µM
- GI50 [11]: 0.0189 µM
- TGI [11]: 0.0379 µM
- GI50 [12]: 0.0239 µM
- TGI [12]: 0.0532 µM
- GI50 [13]: < 0.01 µM
- TGI [13]: < 0.01 µM
